Data reported in US10780083B1, “Charged ion channel blockers and methods for use” (Nocion Therapeutics, Inc., priority 2019, dated 2020).

Experiment: PAMPA membrane permeability assay
Format: in vitro ADME
Conditions: pH 7.4 buffer, incubated for 4 hours, passive diffusion
Method: The PAMPA assay (pION, Inc., Woburn Mass.) was used to determine the ability of compounds of the invention to cross an artificial lipid membrane by passive diffusion. Test compounds were dissolved in DMSO (10 mM) and diluted 200-fold in buffer (pION Inc., pH 7.4) to provide 50 uM stock solutions. Buffer (150 μL) was added to a UV blank plate and stock solutions (150 μL) were transferred to a UV reference plate. The blank and reference spectrum were read using a spectrophotometer. Stock solutions (200 μL) were added to the donor plate of the PAMPA sandwich plate and an accept plate painted with GIT lipid (pION Inc, 5 μL) was placed on top. Buffer (200 μL) was added to the acceptor plate and the PAMPA sandwich plate was incubated for 4 hours. Aliquots (150 μL) from the acceptor plate were added to a UV plate and read as acceptor spectrum. Aliquots (150 μL) of the donor solutions were added to a UV analysis plate and read as donor spectrum. The permeability coefficient of test compounds was calculated using PAMPA Explorer™ software (version 3.5.0.4) based on the AUC of the reference plate, the donor plate, and the acceptor plate.

| SMILES | Papp at 4 h, 50 uM |
| --- | --- |
| Cc1cccc(C)c1NC(=O)C[N+]1(Cc2ccccc2)CCCCCC1.[Br-] [4A′, 1-benzyl-1-(2-((2,6-dimethylphenyl)amino)-2-oxoethyl) azepan-1-ium bromide] | < 1 ×10⁻⁶ cm/s |
| Cc1cccc(C)c1NC(=O)C[N+]1(Cc2ccccc2)CCCC1.[Br-] [2A′, 1-benzyl-1-(2-((2,6-dimethylphenyl)amino)-2-oxoethyl) pyrrolidin-1-ium bromide] | < 1 ×10⁻⁶ cm/s |
| CCC(C(=O)Nc1c(C)cccc1C)[N+]1(Cc2ccccc2)CCCCCC1.[Br-] (centres unmarked) [5A′, 1-benzyl-1-(1-((2,6-dimethylphenyl)amino)-1-oxobutan-2-yl) azepan-1-ium bromide] | < 1 ×10⁻⁶ cm/s |
| Cc1cccc(C)c1NC(=O)C[N+]1(Cc2ccccc2)CCCCCCC1.[Br-] [6A′, 1-benzyl-1-(2-((2,6-dimethylphenyl)amino)-2-oxoethyl) azocan-1-ium bromide] | < 1 ×10⁻⁶ cm/s |
| CCC(C(=O)Nc1c(C)cccc1C)[N+]1(Cc2ccccc2)CCCCC1.[Br-] (centres unmarked) [3A′, 1-benzyl-1-(1-((2,6-dimethylphenyl)amino)-1-oxobutan-2-yl)piperidin-1-ium bromide] | < 1 ×10⁻⁶ cm/s |
